{"source": "patent US20150158914A1", "about": "“PEPTIDES, CONSTRUCTS AND USES THEREFOR” (priority 2010, published 2015)", "test_system": "X-protein", "experiment": "X-protein-mediated apoptosis of HepG2 transfectants (annexin-V staining)", "type": "cell-based, hepatitis B virus", "conditions": "10 μM peptide at 3 h, 3 and 24 h, or 3, 24 and 48 h, 51 h culture, listed as oligomerization domain peptide (aa 16-35)", "procedure": "No PSG antibiotic was added to the medium as it can interfere with transfection efficiency. The medium was then removed and replaced with opti-MEM medium without 10% FCS. The amount of plasmid DNA used for transfection was […]. Firstly, 0.2 μg of either pcDNA3.1-HBX or pcDNA3-HBX Myc plasmid DNA was mixed with 25 μl of Opti-MEM medium, and then 0.2 μl of polymag transfection reagent was added (these solutions were prepared as a master mixes—the amounts mentioned are indicative for one well). The mixture was incubated for 20 min and then 25 μl added to the cells. The plate was placed onto a magnetic plate on a rotating platform for 20 min, and then the cells incubated for 3 h.\nCells were transfected with X-protein plasmid vectors as described above. After 3 h of transfection on the magnetic plate, the oligomerization domain peptide aa 16-35 or the control X-protein peptide aa 140-153 were added at a final concentration of 10 μM to the cells in MEM without 10% FCS, and cells incubated for either 3 h, 21 h, or 45 h. Peptides were added to MEM without FCS as serum can rapidly degrade small peptides. […]\nA drop of mounting solution with DAPI was added to the cells, and covered with a cover slip. Slides were examined by fluorescence microscopy by using a Nikon E600 fluorescent microscope and photos were taken using Nikon ACT-1 software. […]", "note": "Entries after “also recorded” stand apart in the source; their conditions may differ.", "data": [{"substance": "FITC-Acp-LCLRPVGAESRGRPVSGPFG [Peptide 16-35]", "values": [{"measurement": "inhibition of full-length X-protein-mediated apoptosis", "setting": "pCDNA3-HBX Myc transfectants", "value": "inhibited full-length X-protein-mediated apoptosis of HepG2 cells; also recorded: significantly reduced X-protein-mediated apoptosis in a dose-dependent fashion"}, {"measurement": "inhibition of truncated X-protein-mediated apoptosis", "setting": "pCDNA3.1-HBX transfectants", "value": "inhibited truncated X-protein-mediated apoptosis of HepG2 cells; also recorded: significantly reduced X-protein-mediated apoptosis in a dose-dependent fashion"}]}]}
